Experimental data taken from patent US11478474B2, “2-(3′-(hydroxymethyl)-1-methyl-5-((5-(2-methyl-4-(oxetan-3-yl)piperazin-1-yl)pyridin-2-yl)amino)-6-oxo-1,6-dihydro-[3,4′-bipyridin]-2′-yl)-7,7-dimethyl-7,8-dihydro-2H-cyclopenta[4,5]pyrrolo[1,2-a]pyrazin-1(6H)-one as a BTK inhibitor” (HUTCHISON MEDIPHARMA LIMITED, priority 2020, dated 2022).

Target: BTK recombinant protein (Homo sapiens (Human), UniProt Q06187)
Test: Determination of biochemical BTK (Z'-LYTE kinase assay)
Procedure, shortened: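 Human BTK recombinant kinase (3.32 nM final) was preincubated with compound for 30 min at 4 °C. Reaction ran 1 h at room temperature with Tyr01 FRET peptide (2 μM) and ATP (32 μM); development protease then added. Coumarin 445 nm/fluorescein 520 nm emission ratio (400 nm excitation) gave inhibition across 8 concentrations, 3000–1.37 nM.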

Chain of BTK recombinant protein (Q06187 whole entry): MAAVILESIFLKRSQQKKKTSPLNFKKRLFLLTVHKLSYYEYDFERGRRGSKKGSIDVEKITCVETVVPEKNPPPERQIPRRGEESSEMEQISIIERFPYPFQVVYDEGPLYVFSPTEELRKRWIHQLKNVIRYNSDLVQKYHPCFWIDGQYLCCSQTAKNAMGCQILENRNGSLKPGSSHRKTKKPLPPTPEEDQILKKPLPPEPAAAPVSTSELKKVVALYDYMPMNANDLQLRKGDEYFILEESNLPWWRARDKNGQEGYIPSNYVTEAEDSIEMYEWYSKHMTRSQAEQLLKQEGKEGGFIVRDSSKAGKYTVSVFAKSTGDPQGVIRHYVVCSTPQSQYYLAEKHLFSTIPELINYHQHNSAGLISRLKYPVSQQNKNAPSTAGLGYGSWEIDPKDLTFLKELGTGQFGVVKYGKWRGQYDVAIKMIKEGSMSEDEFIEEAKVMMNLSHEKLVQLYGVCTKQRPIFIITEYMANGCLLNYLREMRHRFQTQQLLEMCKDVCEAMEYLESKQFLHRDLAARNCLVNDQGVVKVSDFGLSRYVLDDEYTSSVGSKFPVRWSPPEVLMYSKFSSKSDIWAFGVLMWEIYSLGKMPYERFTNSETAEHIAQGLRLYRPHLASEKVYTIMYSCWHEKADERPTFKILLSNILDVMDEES

Structure (SMILES)	IC50 [nM]
C[C@H]1CN(C2COC2)CCN1c1ccc(Nc2cc(-c3ccnc(-n4ccn5c6c(cc5c4=O)CC(C)(C)C6)c3CO)cn3c(F)cnc23)nc1 [Compound 23]	44
C[C@H]1CN(C2COC2)CCN1c1cnc(Nc2cc(-c3ccnc(-n4ccn5c6c(cc5c4=O)CC(C)(C)C6)c3CO)cn(C)c2=O)nc1 [Compound 44]	22
C[C@H]1CN(C2COC2)CCN1c1cnc(Nc2cc(-c3ccnc(-n4ccn5c6c(cc5c4=O)CC(C)(C)C6)c3CO)cn(C)c2=O)cn1 [Compound 43]	9
COCCN(C)c1ccc(Nc2cc(-c3ccnc(-n4ccn5c6c(cc5c4=O)CC(C)(C)C6)c3CO)cn(C)c2=O)nc1 [Compound 50]	24
C[C@H]1CN(C2COC2)CCN1c1ccc(Nc2cc(-c3ccnc(-n4ccn5c(cc6cc(F)ccc65)c4=O)c3CO)cn(C)c2=O)nc1 [Compound 75]	11
C[C@H]1CN(C2COC2)CCN1c1ccc(Nc2cc(-c3ccnc(-n4ccn5c6c(cc5c4=O)CCC6)c3CO)cn(C)c2=O)nc1 [Compound 64]	20
CC1CCc2cc3c(=O)n(-c4nccc(-c5cc(Nc6ccc(N7CCN(C8COC8)C[C@@H]7C)cn6)c(=O)n(C)c5)c4CO)ccn3c2C1 (mixture of isomers) [Compound 78]	8
COCCN1CCN(c2ccc(Nc3cc(-c4ccnc(-n5ccn6c7c(cc6c5=O)CC(C)(C)C7)c4CO)cn(C)c3=O)nc2)[C@@H](C)C1 [Compound 8]	12
C[C@H]1CN(C2COC2)CCN1c1ccc(Nc2cc(-c3ccnc(-n4ccn5c6c(cc5c4=O)CCC(F)(F)C6)c3CO)cn(C)c2=O)nc1 [Compound 56]	20
Cn1cc(-c2ccnc(-n3ccn4c5c(cc4c3=O)CC(C)(C)C5)c2CO)cc(Nc2cn(CCF)nn2)c1=O [Compound 31]	9
C[C@H]1CN(C2COC2)CCN1c1ccc(Nc2cc(-c3ccnc(-n4ccn5c(cc6ccccc65)c4=O)c3CO)cn(C)c2=O)nc1 [Compound 74]	17
C[C@H]1CN(C2COC2)CCN1c1ccc(Nc2cc(-c3ccnc(-n4ccn5c6c(cc5c4=O)CC(C)(C)C6)c3CO)cn3ncnc23)nc1 [Compound 21]	8
C[C@@H]1CN(c2ccc(Nc3cc(-c4ccnc(-n5ccn6c7c(cc6c5=O)CCC7)c4CO)cn(C)c3=O)nc2)[C@@H](C)CN1C1COC1 [Compound 2, 2-(5-((5-((2S,5R)-2,5-dimethyl-4-(oxetan-3-yl)piperazin-1-yl)pyridin-2-yl)amino)-3′-(hydroxymethyl)-1-methyl-6-oxo-1,6-dihydro-[3,4′-bispyridin]-2′-yl)-7,8-dihydro-2H-cyclopenta[4,5]pyrrolo[1,2-a]pyrazin-1(6H)-one]	9

More lines, now with the values ahead:

IC50 [nM]	Structure (SMILES)
8	C[C@H]1CN(C2COC2)CCN1c1ccc(Nc2cc(-c3ccnc(-n4cnn5c6c(cc5c4=O)CC(C)(C)C6)c3CO)cn(C)c2=O)nc1 [Compound 63]
3	Cn1cc(Nc2cc(-c3ccnc(-n4ccn5c6c(cc5c4=O)CC(C)(C)C6)c3CO)cn(C)c2=O)nn1 [Compound 28]
5	C[C@@H]1CN(c2ccc(Nc3cc(-c4ccnc(-n5ccn6c(c(F)c7ccccc76)c5=O)c4CO)cn(C)c3=O)nc2)[C@@H](C)CN1C1COC1 [Compound 59]
8	C[C@H]1CN(C2COC2)CCN1c1ccc(Nc2cc(-c3ccnc(-n4ccn5c6c(cc5c4=O)CC(F)(F)CC6)c3CO)cn(C)c2=O)nc1 [Compound 58]
7	C[C@H]1CN(C)CCN1c1ccc(Nc2cc(-c3ccnc(-n4ccn5c6c(cc5c4=O)CC(C)(C)C6)c3CO)cn(C)c2=O)nc1 [Compound 26]
4	C[C@H]1CN(C2COC2)CCN1c1ccc(Nc2cc(-c3ccnc(-n4ccn5c(c(F)c6cc(F)ccc65)c4=O)c3CO)cn(C)c2=O)nc1 [Compound 60]
7	C[C@@H]1CN(c2ccc(Nc3cc(-c4ccnc(-n5ccn6c7c(cc6c5=O)CC(C)(C)C7)c4CO)cn(C)c3=O)nc2)[C@@H](C)CN1C1COC1 [Compound 27]
6	C[C@H]1CN(C2COC2)CCN1c1ccc(Nc2cc(-c3ccnc(-n4ccn5c(c(F)c6ccccc65)c4=O)c3CO)cn(C)c2=O)nc1 [Compound 57]
< 1	C[C@H]1CN(C2COC2)CCN1c1ccc(Nc2cc(-c3ccnc(-n4ncn5c6c(cc5c4=O)CC(C)(C)C6)c3CO)cn(C)c2=O)nc1 [Compound 79]
6	CCn1cc(Nc2cc(-c3ccnc(-n4ccn5c6c(cc5c4=O)CC(C)(C)C6)c3CO)cn3ncnc23)nn1 [Compound 71]
6	C[C@H]1CN(C2COC2)CCN1c1ccc(Nc2cc(-c3ccnc(-n4ccn5c6c(cc5c4=O)CC(C)(C)C6)c3CO)n[nH]c2=O)nc1 [Compound 49]
4	CN1CCN(C(=O)c2ccc(Nc3cc(-c4ccnc(-n5ccn6c7c(cc6c5=O)CC(C)(C)C7)c4CO)cn(C)c3=O)nc2)CC1 [Compound 48]
< 1	Cn1cc(-c2ccnc(-n3ccn4c5c(cc4c3=O)CC(C)(C)C5)c2CO)cc(Nc2ccc(N3CCN(C4COC4)CC3)cn2)c1=O [Compound 9]
